Patent US6977269B1, “Method of improving animal tissue quality” (Pioneer Hi-Bred International, Inc, priority 2001, dated 2005)
Read-outs that look alike come from different tables or passages of the source. Marks after values point to notes of the source that are not given here. One block for each molecule: values may come before it.

Key:
[1] = test system: pigs; assay: Oxidative rancidity of pork chops (2-thiobarbituric acid, TBA number); type: in vivo
Description: Young pigs were fed a diet containing 15 IU/kg feed (=15 mg/kg feed=[…]) vitamin E (in the form of alpha-tocopherol acetate) up to 120 pounds. Upon reaching 120 pounds, the pigs were randomly assigned to treatments using weight as a blocking factor. Sixteen pigs were allocated to the control diet, while thirteen pigs were allocated to each test diet. Treatments consisted of typical corn-soybean meal based diets with three levels of dietary tocopherol: (1) Control diet (15 mg/kg feed alpha-tocopherol acetate); (2) diets supplemented with 150, 300 or 450 mg/kg feed alpha-tocopherol acetate; and (3) diets supplemented with 150, 300 or 450 mg/kg feed gamma-tocopherol. Diets were formulated to provide adequate levels of all nutrients and fed in four phases.
Pork chops (2.5 cm) were cut from vacuum-packaged pork loins that had been stored for 21 days at 1 degree C. Freshly cut chops were placed on styrofoam trays with DriLoc (V 50 pads) and overwrapped with PVC (23,250 cc/m 2 /24 hours oxygen permeability). Pork chops were placed in simulated retail display at 2±3 degrees C. for six days. Product temperature was monitored during the display period. Chops were analyzed for lightness (L*), redness (a*), and yellowness (b*) using Illuminant C or D65 on a Minolta Chroma Meter. Three readings per chop were taken on display days 0, 1, 2, 3, 4 and 5.
Determination of pH was made on days 0 and 5 as an indication of pork spoilage. Oxidative rancidity was measured using 2-Thiobarbituric acid to determine TBA number. Final values were expressed as mg malonaldehyde per 1000 grams of meat. Purge was determined on the vacuum-packaged pork loins.
Data were analyzed using the GLM procedure of SAS. Due to a limited number of observations from the 150 IU alpha-tocopherol treatment, no estimates of carcass or loin quality measures are presented for that treatment. Data collected over a period of days were also analyzed as a splitplot. Contrasts were made between the Control and added tocopherol diets, Control and alpha-tocopherol, Control and gamma-tocopherol, and alpha- versus gamma-tocopherol.

[2] = test system: lambs; assay: Lamb loin chop coloration in retail display (Hunter values, trained panel); type: in vivo; conditions: for Hunter L / Hunter a / Hunter b: lamb loin chops, retail case display; for Discoloration: lean discoloration; for Discoloration / Brown color intensity: trained panel
Description: Following carcass fabrication, one boneless leg and the double loin were collected from each carcass, vacuum-packaged, transported and stored under refrigeration (2 to 4° C.) for seven days. […] chops were fabricated from the semimembranosus muscle from each leg following storage. Leg and double-loin chops were wrapped in oxygen permeable fresh meat PVC film. […] The leg chops and second portion of double loin chops were stored in a walk-in cooler.
After seven days in storage, the leg and loin were placed in a display case for nine days to simulate retail meat counter display conditions. Both sides of the double loin chops were evaluated on days 1, 3, 5 and 9 of retail case display for percent lean discoloration and intensity of brownness by a seven-member trained panel and also by a Spectroguard Computer Color Control System. Left and right observation values were averaged.

[3] = Lamb loin antioxidant concentrations
[4] = in vivo; cited from earlier work
[5] = male, sheep (lambs), in vivo
[6] = in vivo; conditions: male, sheep (lambs)
[7] = test system: iron-loaded rats; conditions: ability to inhibit lipid peroxidation; cited from earlier work
[8] = pork, all supplemented levels pooled

Alpha-Tocopherol in loin ([3]; Day 1): 3.83^a μg/g
Gamma-Tocopherol in loin ([3]; Day 1): 0.30^b μg/g
Total antioxidant in loin ([3]; Day 1): 4.13^b μg/g
Alpha-Tocopherol in loin ([3]; Day 6): 6.22^a μg/g
Gamma-Tocopherol in loin ([3]; Day 6): 0.43^b μg/g
Total antioxidant in loin ([3]; Day 6): 6.70^b μg/g
Alpha-Tocopherol in loin ([3]; Overall): 5.04^a μg/g
Gamma-Tocopherol in loin ([3]; Overall): 0.37^b μg/g
Total antioxidant in loin ([3]; Overall): 5.41^b μg/g
Structure (SMILES): Cc1c(C)c2c(c(C)c1O)CC[C@@](C)(CCC[C@H](C)CCC[C@H](C)CCCC(C)C)O2 [Alpha-tocopherol, alpha-tocopherol, reference compound]
Oxidative stability (5 day storage TBA) ([1]; dietary level 300 IU): .134 mg malonaldehyde per 1000 grams of meat
Oxidative stability (5 day storage TBA) ([1]; dietary level 450 IU): .072 mg malonaldehyde per 1000 grams of meat
Oxidative stability (5 day storage TBA) [1, 8]: .103 mg malonaldehyde per 1000 grams of meat
Hunter L [2]: 36.3^b
Hunter a [2]: 11.9
Hunter b [2]: 7.54
Discoloration [2]: 12.6%
Brown color intensity [2]: 8.30^b
absorbed in the bloodstream [4]: about 100%

Alpha-Tocopherol in loin [5]: 3.22^b μg/g
Increase of tissue gamma-tocopherol level over control treatment [5]: over 35 times
Total antioxidant in loin [5]: 9.57^a μg/g
Alpha-Tocopherol in loin ([5]; 1 day): 3.47^a μg/g
Total antioxidant in loin ([5]; 1 day): 10.6^a μg/g
Alpha-Tocopherol in loin ([5]; 6 day): 2.87^b μg/g
Total antioxidant in loin ([5]; 6 day): 8.47^a μg/g
concentration at 1 day [6]: 7180 ng/g
concentration at 6 day [6]: 5570 ng/g
Structure (SMILES): Cc1c(O)cc2c(c1C)O[C@](C)(CCC[C@H](C)CCC[C@H](C)CCCC(C)C)CC2 [Gamma-tocopherol, gamma-tocopherol]
Oxidative stability (5 day storage TBA) ([1]; dietary level 150 IU): .177 mg malonaldehyde per 1000 grams of meat
Oxidative stability (5 day storage TBA) ([1]; dietary level 300 IU): .080 mg malonaldehyde per 1000 grams of meat
Oxidative stability (5 day storage TBA) ([1]; dietary level 300 IU, listed as gamma-tocopherol): 0.080 mg malonaldehyde per 1000 gram
Oxidative stability (5 day storage TBA) ([1]; dietary level 450 IU): .125 mg malonaldehyde per 1000 grams of meat
Oxidative stability (5 day storage TBA) [1, 8]: .102 mg malonaldehyde per 1000 grams of meat
Hunter L [2]: 38.4^a
Hunter a [2]: 11.7
Hunter b [2]: 8.11
Discoloration [2]: 13.7%
Brown color intensity [2]: 10.3^ab
antioxidant efficacy relative to alpha-tocopherol on a per unit mass basis [7]: about one-third
absorbed in the bloodstream [4]: 3–19%
